Measurements published in patent US8404851B2, “1,3,5-trisubstituted triazole derivative” (Janssen Pharmaceutica NV, priority 2007, dated 2013).

Legend:
[1] = target: T1, hα7-wt nAChR (Homo sapiens, UniProt P36544); assay: Ca2+ flux imaging (FDSS), PAM activity with choline; assay type: cell-based; conditions: hα7-wt nAChR-expressing GH4C1 cells; potentiation of choline 100 μM; compound 0.01 μM to 30 μM
T1 construct: expressed in transfected cells
Experimental: Ca^2+ Flux Imaging (FDSS) […]
PAM activity was detected in real time by applying the compound to be tested to the loaded cells along with a α7 nicotinic receptor agonist during constant monitoring of the cellular calcium mobilization by fluorescence in a FDSS. […]
A control response to choline was calculated on each plate from the difference in peak in fluorescence in wells receiving either choline or assay buffer alone. […]
EC50 values (potency), maximal effect (% efficacy), and Hill slopes were estimated by fitting the sigmoidal equation to the data using GraphPad Prism (GraphPad Software, Inc., San Diego, Calif.). An EC50 (or pEC50) was determined as a concentration relating to half the maximal effect, when a clear sigmoidal curve with top plateau was obtained.

[2] = target: T1, hα7-wt nAChR; assay: Whole-cell voltage-clamp recording, PAM activity with choline; assay type: cell-based; parameters: key: Type 1 compounds enhance the effect size of the current elicited by 1 mM choline but minimally alter the kinetics of the receptor.; Type 2 compounds enhance the effect size of the current elicited by 1 mM choline while reducing the rate and/or the extent of desensitization.; Type 3 compounds enhance the effect size of the current elicited by 1 mM choline. When tested at higher concentrations up to 10 μM they completely inhibit desensitization; Type 4 compounds allow for an initial desensitization of the receptor followed by a re-opening of the receptor during agonist application; conditions: qualitative kinetic properties, 1 mM choline, GH4C1 cells
Experimental: The compounds of the present invention are classified as type 1-4, based on qualitative kinetic properties, as determined by whole-cell voltage-clamp recordings. This classification is based on the effect of an α7 PAM compound, as described hereinbefore, on the signal elicited by an agonist application. In particular, said agonist is choline at a concentration of 1 mM. In a preferred experimental setting, said α7 PAM compound and choline are simultaneously applied to the cell, as described hereinafter. Desensitization as described hereinafter is the closure of the receptor upon activation during the application of the agonist in whole-cell voltage-clamp electrophysiology measurements seen as the reduction of the […] current after initial activation by the agonist.
The definition of the PAM types 1-4 is described hereinafter: • Type 1 compounds enhance the effect size of the current elicited by 1 mM choline but minimally alter the kinetics of the receptor. In particular, the rate and the extent of desensitization, elicited by the agonist, is not affected. […]
The compound of the present invention also has a potentiating effect on the response to choline when measured by whole-cell voltage clamp electrophysiology in GH4C1 cells stably over-expressing the human wild-type α7 receptor, as described hereinafter. […]

T1 sequence (P36544 23-502): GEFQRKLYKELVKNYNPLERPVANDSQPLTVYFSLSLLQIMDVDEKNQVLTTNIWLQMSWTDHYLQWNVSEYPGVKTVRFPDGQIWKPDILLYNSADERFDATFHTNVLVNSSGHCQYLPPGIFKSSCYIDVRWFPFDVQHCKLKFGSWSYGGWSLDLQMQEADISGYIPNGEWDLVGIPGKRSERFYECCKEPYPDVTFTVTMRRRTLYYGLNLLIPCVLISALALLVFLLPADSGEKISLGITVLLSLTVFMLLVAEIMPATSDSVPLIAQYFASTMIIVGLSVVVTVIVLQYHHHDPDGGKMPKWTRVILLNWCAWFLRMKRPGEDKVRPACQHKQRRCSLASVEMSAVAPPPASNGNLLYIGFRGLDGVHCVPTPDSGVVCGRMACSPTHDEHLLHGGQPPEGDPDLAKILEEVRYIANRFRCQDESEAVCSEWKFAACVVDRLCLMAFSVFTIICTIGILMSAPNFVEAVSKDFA

CCNC(=O)Cn1nc(Nc2ccc3c(c2)OC(F)(F)O3)nc1-c1cc(C)nc(C)c1 [Compound E1, 2-[3-(2,2-Difluoro-benzo[1,3]dioxol-5-ylamino)-5-(2,6-dimethyl-pyridin-4-yl)-[1,2,4]-triazol-1-yl]-N-ethyl-acetamide]
EC50 [1]: 309 nM | PAM_type [2]: 2 | melting point: 242.28 °C
